Patent publication US20230233500A1, “Gasdermin D (GSDMD) Succination for the Treatment of Inflammatory Disease” (University of Massachusetts, priority 2020, published 2023)
Counter-ions that a name gives are not always drawn.

Tests used:
GSDMD-N = target: T1, GSDMD-N (Mus musculus, UniProt Q9D8T2); assay: GSDMD-N induced LDH release in HEK293T cells; format: cell-based; conditions: transfected HEK293T cells
T1 construct: Caspase cleavage of GSDMD liberates an N-terminal pore forming fragment (GSDMD-N, p30); host or cells: HEK293T
T1 sequence (Q9D8T2 1-276 limits assumed): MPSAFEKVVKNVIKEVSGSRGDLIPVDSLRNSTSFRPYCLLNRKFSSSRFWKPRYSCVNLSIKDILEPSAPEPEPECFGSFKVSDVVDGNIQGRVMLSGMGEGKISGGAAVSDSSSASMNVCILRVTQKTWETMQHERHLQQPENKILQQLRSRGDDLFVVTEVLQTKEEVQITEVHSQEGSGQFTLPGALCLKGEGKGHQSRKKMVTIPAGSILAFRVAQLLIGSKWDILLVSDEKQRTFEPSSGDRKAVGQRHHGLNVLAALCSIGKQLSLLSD
Description: FIGS. 2A-J. Succination of GSDMD inhibits pyroptosis. Immunoblot of GSDMD in streptavidin pulldown from clicked lysates treated as indicated (A-B). Representative MS spectra of 2-monomethyl and 2-dimethylsuccination of GSDMD immunoprecipitated from fumarate treated BMDMs (C-D). Immunoblot of GSDMD in clicked lysates from transfected HEK293T. Cell death of HEK293T transfected as indicated (F-H). Immunoblots of casplp20 and GSDMD in BMDMs (I). Immunoblots of an in vitro binding assay of succinated and non-succinated GSDMD incubated with caspase 1 beads (J). A, B, F, J, […] representative images from three independent experiments. C, D, E, representative mass spec spectra from two independent experiments. H, I pooled data from three independent experiments. ***, P<0.001 (One-way anova). Error bars show means±SEM.
Cells were plated, treated and incubated in phenol red free medium. Following treatment medium was collected and assessed for LDH release using the CytoTox96 non-radioactive cytotoxicity assay (Promega) as per manufacturer's instructions. […]
Primary BMDMs from WT or GsdmD^−/− mice were cultured in 12-well plates (1×10^6 cells per ml; 1 ml) or 10 cm dishes (2×10^6 cells per ml; 10 ml). […] Samples were resolved by SDS-PAGE and stained using simply blue safe stain or transferred to nitrocellulose membranes and analyzed by immunoblot. […]

CD14+ monocytes = assay: LPS-Nig induced cell death and LDH release in primary CD14+ monocytes; format: cell-based, human; conditions: fumarate 25 μM
Procedure: FIGS. 6A-G. Fumarate inhibits pyroptosis in Human cells. (A-B) Representative images (A) and kinetic data (B) of SYTOX Orange and Hoechst-stained PMA-differentiated THP1 cells treated with LPS for 2 hours, DMSO (vehicle) or fumarate (25 μM) for 1 hour and nigericin (10 μM) for 6 hours. (C) LDH release from (A). (D-E) Kinetic cell death data of SYTOX Orange and Hoechst stained (D) or LDH assay of conditioned medium from primary CD14+ positive monocytes treated with LPS for 2 hours DMSO (vehicle) or fumarate (25 μM) for 1 hour and nigericin (10 μM) for 6 hours. (F) LC/MS quantification of fumarate in WT BMDMs treated with LPS for 2 hours, FHIN1 for 1 hour and nigericin for 1 hour. (G) Representative images of WT primary BMDMs stained with SYTOX Orange and Hoechst following treatment with LPS for 2 hours, DMSO (vehicle) or fumarate (25 μM) or FHIN1 (25 μM) for 1 hour and nigericin for a timecourse of 6 hours. A, B, D, G are representative of 3 independent experiments. C, E, F are pooled data from 3 independent experiments. ***, P<0.001, ****, P<0.00001 (Students t-test). Error bars show mean±SD (B, D) or SEM (C, E). Cells were plated, treated and incubated in phenol red free medium. Following treatment medium was collected and assessed for LDH release using the CytoTox96 non-radioactive cytotoxicity assay (Promega) as per manufacturer's instructions. […]

## COC(=O)/C=C/C(=O)OC [Fumarate, Dimethyl fumarate]
GSDMD-N
  GSDMD-N induced LDH release: inhibited
CD14+ monocytes
  LPS-Nig induced LDH release: blocked
CD14+ monocytes; SYTOX Orange
  LPS-Nig induced cell death: blocked
